Measured values as given in patent publication US20160022720A1, “COMPOSITIONS AND METHODS FOR TREATING DISEASE STATES ASSOCIATED WITH ACTIVATED T CELLS AND/OR B CELLS” (priority 2013, published 2016).
Entries after “also recorded” stand apart in the source; their conditions may differ.

Assays:
[1] = tested on: activated T cells (P14); type: cell-based, mice; details: for killing of activated T cells in vitro: agent itself, overnight culture
[2] = tested on: LCMV-infected prf−/− mice; details: mouse, in vivo
[3] = tested on: reactivated memory T cells; test: Depletion of memory T cells reactivated in vivo with liposomal GP33 peptide in WT mice; details: etoposide 100 mg/kg/dose x2, or etoposide 25 mg/kg/dose + nutlin 50 mg/kg x4
[4] = tested on: experimental autoimmune encephalitis; details: in vivo
[5] = tested on: HLH; details: HLH patients, etoposide-based therapy, increased from approximately 0%; cited from earlier work
[6] = tested on: activated T cells; design: species or system mice; details: mouse
[7] = tested on: activated T cells; type: cell-based, mice; details: culture of activated T cells with agent

## NC(=O)C1CCCc2c1[nH]c1ccc(Cl)cc21 (stereo not drawn) [Ex527]
[1]
  potentiation of etoposide killing of activated T cells in vitro: enhance etoposide killing of activated T cells in vitro

## COc1cc([C@@H]2c3cc4c(cc3[C@@H](O[C@@H]3O[C@@H]5CO[C@@H](C)O[C@H]5[C@H](O)[C@H]3O)[C@H]3COC(=O)[C@H]23)OCO4)cc(OC)c1O [etoposide]
[2]
  inflammatory cytokines/disease-specific inflammatory markers: decreased inflammatory cytokines/disease-specific inflammatory markers
  pancytopenia: alleviated pancytopenia
  survival / rescue from HLH-like disease: allowed survival; also recorded: rescues LCMV-infected prf−/− mice from HLH-like disease
[3]
  depletion of reactivated memory T cells in vivo: ablated
[4]
  therapeutic effect in experimental autoimmune encephalitis: highly therapeutic
[5]
  long-term survival: 55%

## CCOc1cc(/C=C2/C(=O)N(c3ccccc3)N=C2C)cc(Cl)c1OCC(=O)OC [Sj-172550]
[1]
  potentiation of etoposide killing of activated T cells in vitro: enhance etoposide killing of activated T cells in vitro

## O=C1C(Cl)=C(N2CCOCC2)C(=O)N1c1ccc(Cl)c(Cl)c1 [Ri-1, 3-chloro-1-(3,4-dichlorophenyl)-4-morpholino-1H-pyrrole-2,5-dione]
[1]
  potentiation of etoposide killing of activated T cells in vitro: substantial synergy with etoposide in vitro
  killing of activated T cells in vitro: kill activated T cells in vitro

## COc1ccc(C2=NC(c3ccc(Cl)cc3)C(c3ccc(Cl)cc3)N2C(=O)N2CCNC(=O)C2)c(OC(C)C)c1 (stereo not drawn) [nutlin]
[6]
  potentiation of low dose etoposide for depletion of activated T cells in vivo: potentiates etoposide immunomodulation in vivo
[1]
  potentiation of etoposide killing of activated T cells in vitro: dramatically shifts the etoposide:death, dose:response curve

## NC(=O)Nc1cc(-c2cccc(F)c2)sc1C(=O)N[C@H]1CCCNC1 [AZD7762]
[6]
  potentiation of low dose etoposide for depletion of activated T cells in vivo: strongly synergizes with etoposide in vivo
[1]
  potentiation of etoposide killing of activated T cells in vitro: potentiate etoposide killing of activated T cells in vitro
  killing of activated T cells in vitro: kill activated T cells in vitro; also recorded: selectively kill activated T cells
[7]
  DNA damage (gammaH2AX) in activated T cells in vitro: leads to accumulation of spontaneous DNA damage; also recorded: led to increasing DNA damage

## C=CCn1c(=O)c2cnc(Nc3ccc(N4CCN(C)CC4)cc3)nc2n1-c1cccc(C(C)(C)O)n1 [MK-1775]
[1]
  potentiation of etoposide killing of activated T cells in vitro: potentiate etoposide killing of activated T cells in vitro
  killing of activated T cells in vitro: selectively kill activated T cells
